From patent publication US9012411B2, “Formulations from derivatives of curcumin, paclitaxel, and aspirin” (Organomed Corporation, priority 2009, dated 2015)
In brackets after ≈: the same amount, converted by molar mass. Marks after values point to notes of the source that are not given here. One block for each compound: values may come before it.

Assays:
[1] = test system: prostate (PC-3) cancer cell line; experiment: Cellular inhibition, Alamar Blue; format: cell-based
Description: (§1) Assays were performed with 3 cancer cell lines: breast (SKBR3), pancreatic (Panc1), prostate (PC-3) and 1 normal (nor-cancer) cell line (WI-38). Compounds were delivered to the cells after dissolving in DMSO. Five dilutions per compound were tested on a total of 4 cell lines in 96 well plates. Cellular inhibition was measured using Alamar Blue. After addition of compound a 24 hour and 48 hour time point using fluorescent plate reader was taken. Data from plate reader was analyzed in the following way: % inhibition bar graphs, % inhibition line graphs and IC50 growth inhibition values. In Tables 7-14, IC50 units are Molar (M).

[2] = test system: breast (SKBR3) cancer cell line; experiment: Cellular inhibition, Alamar Blue; format: cell-based; settings: Homo sapiens, SK-BR-3
Description: as §1

[3] = test system: pancreatic (Panc1) cancer cell line; experiment: Cellular inhibition, Alamar Blue; format: cell-based; settings: Homo sapiens, PANC-1
Description: as §1

[4] = test system: normal (non-cancer) cell line WI-38; experiment: Cellular inhibition, Alamar Blue; format: cell-based; settings: for IC50: Homo sapiens, WI-38
Description: as §1

[5] = water at 25° C.; Merck Index; cited from earlier work
[6] = test system: cancer cell lines SKBR3, Panc1, PC-3; experiment: Cellular inhibition, Alamar Blue, cancer cell lines taken together; format: cell-based; settings: 24 hours
Description: as §1

[7] = In vitro enzyme hydrolysis in human serum (HPLC); format: in vitro ADME; settings: 25% human serum; for Test compound Rate: rate of decomposition of test compound; for Test compound Concentration: remaining test compound
Description: A 25% solution of human serum in 0.01M phosphate buffer was taken and the test compound (glucose aspirin or aspirin) were added to get a concentration of 0.2 mg/mL. The hydrolysis for the rate of release of salicylic acid and the rate of decomposition of the test compound were measured by HPLC.

[8] = test system: carrageenan induced rat paw edema; experiment: Carrageenan induced rat paw edema; format: in vivo, albino rats; settings: for Percent inhibition of paw edema (Std. Error): Example 9, 100 mg/kg oral with food
Description: Animals were kept under 13 hour day night cycle. Animals were given standard diet and water was provided ad, libitum. All animals were acclimatized for at least one week before the experimental session. Animals were divided in to five groups. Each group consisted of 8 animals.
Pedal inflammation in albino rats of either sex was produced according to the method of Winter et al., (Proc Soc Exp Biol Med 1963; 111: 544-7). An injection was made with 0.1 ml of 1% carrageenan (SIGMA) suspension into the right hind foot of each rat in the plantar region. […] Control group 5 was given 0.5 ml saline and groups 1 and 2 received aspirin. Increase in linear paw circumference was measured by tying a piece of cotton thread round the rat's paw, and noting the point of intersection of two ends on a meter scale. This was taken as an index of increase in paw volume, which is a measure of oedema (Bamgbose S O A, Noamesi B K. Planta Med 1981; 42: 392-6). Measurements were taken immediately before and at 1, 2 and 3 hours after carrageenan injection. The inhibitory activity was calculated according to the following formula (Awe S O, Olajide O A, Adeboye J O, Makinde J M. Indian J Pharmacol 1998; 30: 38-42):
[formula] Ct-Linear paw circumference 3 hours after carrageenan injection and Co-Linear paw circumference before carrageenan injection.
Albino rats obtained from central animal house of institute were used in the study. The animals were kept under 12 hour day night cycle. Animals were given standard diet and water was provided ad libitum. All animals were acclimatized for at least one week before the experimental session. Animals were divided into twelve groups in the carrageenan induced paw edema and tail flick method. Each group consisted of 4 animal each.
Animals were divided into eight groups in the carrageenan induced paw edema and tail flick method. Each group consisted of 6 animal each. The groups received various chemicals as given in Table 16 by oral administration with food. The following methods were used to evaluate the activity of the compositions:
Pedal inflammation in albino rats of either sex was produced according to the method of Winter et al. (Proc. Soc. Exp. Biol. Med., 1963, 111: 544-547). An injection was made with 0.1 ml of 1% carrageenan (SIGMA) suspension into the right hind foot of each rat in the plantar region. The various chemicals were given 30 minutes before carrageenan injection. Increase in linear paw circumference was measured by tying a piece of cotton thread round the rat's paw, and noting the point of intersection of two ends on a meter scale. This was taken as an index of increase in paw volume, which is a measure of edema (Bamgbose, S. O. A. & Noamesi, B. K., Planta. Med., 1981, 42: 392-396). Measurements were taken immediately before and at 1, 2 and 3 hours after carrageenan injection. The inhibitory activity was calculated according to the following formula (Awe S O, Olajide O A, Adeboye J O, Makinde J M. Indian J. Pharmacol., 1998; 30: 38-42):
Animals were divided into six groups in the carrageenan induced paw edema and tail flick method. Each group consisted of 8 animals each. Carrageenan-induced rat paw edema and Tail flick test were performed as discussed above in Example 8. Data were analyzed using analysis of variance (ANOVA) with Posthoc Bonferroni multi-comparisons. P<0.05 was considered as statistically significant.

[9] = test system: tail flick latency in rats; experiment: Tail flick test (analgesic activity); format: in vivo, albino rats
Description: Rats were screened for tail flip reaction with a cut-off time of 5 seconds. For each animal, the tail flick latency was obtained thrice before drug administration and mean was used as pre-drug latency. The tail flick latencies were measured at 0, 0.5, 1, 1.5, 2 and 3 h after administration chemicals.
Albino rats obtained from central animal house of institute were used in the study. The animals were kept under 12 hour day night cycle. Animals were given standard diet and water was provided ad libitum. All animals were acclimatized for at least one week before the experimental session. […] Each group consisted of 4 animal each.
Rats were screened for tail flip reaction with a cut-off time of 5 seconds. For each animal, the tail flick latency was obtained thrice before drug administration and mean was used as pre-drug latency. The tail flick latencies were measured at 0, 0.5, 1, 1.5, 2 and 3 h after administration of chemicals.
Each group consisted of 8 animals each. […] Data were analyzed using analysis of variance (ANOVA) with Posthoc Bonferroni multi-comparisons. P<0.05 was considered as statistically significant.

[10] = test system: WI38 normal cell line; experiment: EC50 cytotoxicity, MTT assay, 48 hours; format: cell-based; settings: Homo sapiens, WI-38; WI38, 48 hours, 0.04 ng/ml to 400 ng/ml
Description: (§2) Cytotoxicity of the compounds on three different cancer cell lines and one normal cell line was tested. Four human cell lines including both cancer cell lines (SK-BR-3, PANC-1, PC3) and normal cell line (W138) were initially employed. The cells (20,000 cells/well) were plated onto a 96-well plate for 24 hours before treatment. The compounds were diluted in the medium and added to the cells at different concentrations for additional 48 hours from 0.04 ng/ml to 400 ng/ml. MTT assay was then performed.

[11] = test system: SK-BR-3 cells; experiment: EC50 cytotoxicity, MTT assay, 48 hours; format: cell-based; settings: Homo sapiens; SK-BR-3, 48 hours, 0.04 ng/ml to 400 ng/ml
Description: as §2

[12] = test system: PC3 cells; experiment: EC50 cytotoxicity, MTT assay, 48 hours; format: cell-based; settings: Homo sapiens, PC-3; PC3, 48 hours, 0.04 ng/ml to 400 ng/ml
Description: as §2

[13] = test system: PANC-1 cells; experiment: EC50 cytotoxicity, MTT assay, 48 hours; format: cell-based; settings: Homo sapiens; PANC-1, 48 hours, 0.04 ng/ml to 400 ng/ml
Description: as §2

[14] = test system: WI38 normal cell line; experiment: GI50 (50% inhibition of cell growth), MTT assay, 72 hours; format: cell-based; settings: Homo sapiens, WI-38, 72 h, WI38, 72 hours
Description: (§3) The cells were plated onto a 96 well plate and treated with different concentrations of the compounds from 1 ng/ml to 10 ug/ml for 72 hours followed by MTT assay.
(§4) The cells were plated onto a 96 well plate and treated with different concentrations of the compounds from 0.04 ng/ml to 400 ng/ml for 72 hours followed by MTT assay.

[15] = test system: SK-BR-3 cells; experiment: as above; format: cell-based; settings: Homo sapiens, SK-BR-3, 72 h
Description: as §3, §4

[16] = test system: PC3 cells; experiment: as above; format: cell-based; settings: Homo sapiens, PC-3, 72 h, PC3, 72 hours
Description: as §3, §4

[17] = test system: PANC-1 cells; experiment: as above; format: cell-based; settings: Homo sapiens, PANC-1, 72 h
Description: as §3, §4

[18] = Example 6, 50-200 mg/kg, compared with control groups and aspirin
[19] = 0.04 ng/ml to 400 ng/ml (Example 14)
[20] = 1 ng/ml to 10 ug/ml (Example 8)

- IC50 ([1]; PC3, 24 hours): 771 µM
- IC50 ([1]; PC3, 48 hours): 782 µM
- IC50 ([2]; SKBR3, 24 hours): 731 µM
- IC50 ([2]; SKBR3, 48 hours): 693 µM
- IC50 ([3]; PANC1, 24 hours): 975 µM
- IC50 ([3]; PANC1, 48 hours): 745 µM
- Average rate, test compound ([7]; decomposition of test compound, 0-180 min): -1.57e-06 M/min
- Test compound Rate ([7]; 0 min): 0 M/min
- Test compound Rate ([7]; 30 min): -1.4e-06 M/min
- Test compound Rate ([7]; 60 min): -9.81e-07 M/min
- Test compound Rate ([7]; 90 min): -2.32e-06 M/min
- Test compound Rate ([7]; 120 min): -1.56e-06 M/min
- Test compound Rate ([7]; 180 min): -1.58e-06 M/min
- Test compound Concentration ([7]; 0 min): 457 µM
- Test compound Concentration ([7]; 30 min): 415 µM
- Test compound Concentration ([7]; 60 min): 399 µM
- Test compound Concentration ([7]; 90 min): 248 µM
- Test compound Concentration ([7]; 120 min): 270 µM
- Test compound Concentration ([7]; 180 min): 174 µM
SMILES: CC(=O)Oc1ccccc1C(=O)O [Aspirin, acetylsalicylic acid]
- IC50 ([4]; WI38, 24 hours): 619 µM
- IC50 ([4]; WI38, 48 hours): 501 µM
- Aspirin solubility in water [5]: 0.33 g/100 mL
- inhibition of cancer cell growth (in words) [6]: did not seem to inhibit growth by any significant means
- Paw circumference ([8]; Example 6, 100 mg/kg, 0 h): 3.125 ± 0.13 mm
- Paw circumference ([8]; Example 6, 100 mg/kg, 1 h): 3.475 ± 0.15 mm
- Paw circumference ([8]; Example 6, 100 mg/kg, 2 h): 3.6 ± 0.14 mm
- Paw circumference ([8]; Example 6, 100 mg/kg, 3 h): 3.475 ± 0.10 mm
- Paw circumference ([8]; Example 6, 200 mg/kg, 0 h): 3.3 ± 0.18 mm
- Paw circumference ([8]; Example 6, 200 mg/kg, 1 h): 3.425 ± 0.21 mm
- Paw circumference ([8]; Example 6, 200 mg/kg, 2 h): 3.575 ± 0.13 mm
- Paw circumference ([8]; Example 6, 200 mg/kg, 3 h): 3.55 ± 0.10 mm
- % inhibition of paw edema (in words) [8, 18]: significantly inhibited the development of the edema
- Paw circumference ([8]; Example 8 (in vivo), 100 mg/kg oral with food, 0 h): 3.4 mm
- Paw circumference ([8]; Example 8 (in vivo), 100 mg/kg oral with food, 1 h): 3.82 mm
- Paw circumference ([8]; Example 8 (in vivo), 100 mg/kg oral with food, 2 h): 3.58 mm
- Paw circumference ([8]; Example 8 (in vivo), 100 mg/kg oral with food, 3 h): 3.67 mm
- Percent inhibition of paw edema (Std. Error) ([8]; 1 hr): 55.44%
- Percent inhibition of paw edema (Std. Error) ([8]; 2 hr): 79.16%
- Percent inhibition of paw edema (Std. Error) ([8]; 3 hr): 75.29%
- Tail flick latency / analgesic activity (in words) ([9]; Example 5, 100 and 200 mg/kg i.p., rats): significant increase in the tail flick latency
- Tail flick latency time ([9]; Example 6, 100 mg/kg, 0 min): 1.64 ± 0.27 s
- Tail flick latency time ([9]; Example 6, 100 mg/kg, 30 min): 3.28 ± 0.26 s
- Tail flick latency time ([9]; Example 6, 100 mg/kg, 60 min): 3.28 ± 0.57 s
- Tail flick latency time ([9]; Example 6, 100 mg/kg, 90 min): 2.88 ± 0.26 s
- Tail flick latency time ([9]; Example 6, 100 mg/kg, 120 min): 2.73 ± 0.48 s
- Tail flick latency time ([9]; Example 6, 100 mg/kg, 180 min): 2.05 ± 0.76 s
- Tail flick latency time ([9]; Example 6, 200 mg/kg, 0 min): 2.32 ± 0.46 s
- Tail flick latency time ([9]; Example 6, 200 mg/kg, 30 min): 3.46 ± 0.77 s
- Tail flick latency time ([9]; Example 6, 200 mg/kg, 60 min): 3.46 ± 0.17 s
- Tail flick latency time ([9]; Example 6, 200 mg/kg, 90 min): 3.03 ± 0.42 s
- Tail flick latency time ([9]; Example 6, 200 mg/kg, 120 min): 3.12 ± 0.30 s
- % MPE / analgesic activity in tail flick test (in words) [9, 18]: significantly more
- Tail flick latency time ([9]; Example 8 (in vivo), 100 mg/kg oral with food, 0 min): 2.37 s
- Tail flick latency time ([9]; Example 8 (in vivo), 100 mg/kg oral with food, 30 min): 2.75* seconds
- Tail flick latency time ([9]; Example 8 (in vivo), 100 mg/kg oral with food, 60 min): 2.68 s
- Tail flick latency time ([9]; Example 8 (in vivo), 100 mg/kg oral with food, 90 min): 2.57 s
- Tail flick latency time ([9]; Example 8 (in vivo), 100 mg/kg oral with food, 120 min): 2.23 s
- Tail flick latency time ([9]; Example 8 (in vivo), 100 mg/kg oral with food, 180 min): 2.37 s

- IC50 ([1]; PC3, 24 hours): 0.0581 µM
- IC50 ([1]; PC3, 48 hours): 0.0803 µM
- IC50 ([2]; SKBR3, 24 hours): 0.694 µM
- IC50 ([2]; SKBR3, 48 hours): 3.23 µM
- IC50 ([3]; PANC1, 24 hours): 0.153 µM
- IC50 ([3]; PANC1, 48 hours): 0.18 µM
- GI50 [15, 19]: 0.78 ng/mL (≈ 0.913 nM)
- GI50 [15, 20]: 1.15 ng/mL (≈ 1.35 nM)
- GI50 [16, 19]: 0.05 ng/mL (≈ 0.0586 nM)
- GI50 [16, 20]: 258 ng/mL (≈ 302 nM)
- GI50 [17, 19]: 5.46 ng/mL (≈ 6.39 nM)
- GI50 [17, 20]: 1.8 ng/mL (≈ 2.11 nM)
SMILES: CC(=O)O[C@H]1C(=O)[C@@]2(C)[C@H]([C@H](OC(=O)c3ccccc3)[C@]3(O)C[C@H](OC(=O)[C@H](O)[C@@H](NC(=O)c4ccccc4)c4ccccc4)C(C)=C1C3(C)C)[C@]1(OC(C)=O)CO[C@@H]1C[C@@H]2O [Taxol, Paclitaxel]
- inhibition ([1]; PC-3, 48 hours, all concentrations): ~60%
- Effect on normal cell growth (WI-38) (in words) ([4]; 48 hours): some effect on normal cell growth
- IC50 ([4]; WI38, 24 hours): 19.1 µM
- IC50 ([4]; WI38, 48 hours): 80 µM
- EC50 [10]: 37.9 ng/mL (≈ 44.4 nM)
- EC50 [11]: 36.1 ng/mL (≈ 42.2 nM)
- EC50 [12]: 8.51 ng/mL (≈ 9.97 nM)
- EC50 [13]: 32.8 ng/mL (≈ 38.4 nM)
- GI50 [14, 19]: 5.6 ng/mL (≈ 6.56 nM)
- GI50 [14, 20]: 514 ng/mL (≈ 602 nM)
